US7186825B2, “Conformationally restricted polyamine analogs as disease therapies” (Cellgate, Inc., priority 1999, dated 2007)
Like-named read-outs stand apart in the source and are kept apart here.

Key:
Format in all cases: cell-based
[1] = tested on: human prostate cancer cells PC3; assay: MTT assay, survival/growth of cultured human prostate cancer cells PC3; details: for EC50: figure legends, survival of cultured PC3 cells, MTT, six days after drug treatment, read-out: ED50 (the source's name); for IC50: read-out: concentration needed for 50% growth inhibition (ID50), Table 3, PC-3
Experimental: (§1) Human breast cancer cell line MCF7 was grown in Richter's Improved Modified Eagle's Medium supplemented with 10% fetal bovine serum (FBS) and 2.2 g/L sodium bicarbonate. Human brain tumor cell line U251 MG-NCI was grown in Dulbecco's Modified Eagle's Medium supplemented with 10% FBS. Human lung cancer cell line A549 was grown in Ham's F-12K medium (Cellgro, Mediatech, Inc., VA), supplemented with 10% FBS and 2 mM L-glutamine. Human colon cancer cell line HT29 was cultured in McCoy's 5A medium (Gibco, BRL, Gaithersburg, Md.) supplemented with 10% FBS. Human prostate cancer cell lines PC-3, LNCAP and DuPro were grown in RPMI 1640 Medium (Cellgro, Mediatech, Inc., VA) supplemented with 10% FBS. Another human prostate cancer cell line DU145 was grown in Dulbecco's Modified Eagle's Medium (Gibco, BRL, Gaithersburg, Md.) supplemented with 5% FBS. The A549, MCF7, PC3, LNCAP and DuPro cell lines were cultured in 100 units/mL penicillin and 100 μg/mL streptomycin. HT29 and U251MG cell lines were grown in 50 μg/mL gentamycin (Gibco, BRL, Gaithersburg, Md.). DU145 cell line was maintained in 1% antibitic-antimycotic solution (Sigma, St. Louis, Mo.). The cell cultures were maintained at 37° C. in 5% CO2/95% humidified air. DuPro cells were obtained from M. Eileen Dolan, University of Chicago. All other cells are available from the American Type Culture Collection, Rockville, Md.
(§2) A conventional MTT assay was used to evaluate percent cell survival. Exponentially growing monolayer cells were plated in 96-well plates at a density of 500 cells per well and allowed to grow for 24 hours. Serial dilutions of the drugs were added to the wells. Six days after drug treatment, 25 μl of MTT solution (5 mg/ml) was added to each well and incubated for 4 hours at 37° C. Then 100 μl of lysis buffer (20% sodium dodecyl sulfate, 50% DMF, and 0.8% acetic acid, pH 4.7) was added to each well and incubated for an additional 22 hours. A microplate reader (“EMAX”-brand, Molecular Devices, Sunnyvale, Calif.) set at 570 nm was used to determine the optical density of the cultures. Results are expressed as a ratio of the optical density in drug-treated wells to the optical density in wells treated with vehicle only.
(§3) Using the protocols of Example 2, the porphyrin-polyamine conjugates were tested for activity in vitro in various cancer cell lines.

[2] = tested on: human prostate cancer cells DU145; assay: MTT assay, survival/growth of cultured human prostate cancer cells DU145; details: for EC50: figure legends, survival of cultured DU145 cells, MTT, six days after drug treatment, read-out: ED50 (the source's name); for IC50: read-out: concentration needed for 50% growth inhibition (ID50), Table 3, DU-145
Experimental: as §1, §2, §3

[3] = tested on: human prostate cancer cells DUPRO; assay: MTT assay, survival/growth of cultured human prostate cancer cells DUPRO; details: for EC50: figure legends, survival of cultured DUPRO cells, MTT, six days after drug treatment, read-out: ED50 (the source's name); for IC50: read-out: concentration needed for 50% growth inhibition (ID50), Table 3, DUPRO
Experimental: as §1, §2, §3

[4] = tested on: human colon cancer cells HT29; assay: MTT assay, survival/growth of cultured human colon cancer cells HT29; details: for EC50: figure legends, survival of cultured HT29 cells, MTT, six days after drug treatment, read-out: ED50 (the source's name); for IC50: read-out: concentration needed for 50% growth inhibition (ID50), Table 3, HT-29
Experimental: (§4) As shown in Table 3 and FIGS. 1–32, several novel conformationally restricted polyamine analogs were tested for anti-proliferative properties against cancer cells.
as §1, §2

[5] = tested on: human lung cancer cells A549; assay: MTT assay, survival/growth of cultured human lung cancer cells A549; details: for EC50: figure legends, survival of cultured A549 cells, MTT, six days after drug treatment, read-out: ED50 (the source's name); for IC50: read-out: concentration needed for 50% growth inhibition (ID50); for IC50 / concentration needed for 50% growth inhibition (ID50): Table 3, A549
Experimental: as §4, §1, §2

[6] = tested on: human breast cancer cells MCF7; assay: MTT assay, survival/growth of cultured human breast cancer cells MCF7; details: for EC50: figure legends, survival of cultured MCF7 cells, MTT, six days after drug treatment, read-out: ED50 (the source's name); for IC50: read-out: concentration needed for 50% growth inhibition (ID50), Table 3, MCF7
Experimental: as §4, §1, §2

[7] = tested on: human brain tumor cells U251 MG NCI; assay: MTT assay, survival/growth of cultured human brain tumor cells U251 MG NCI; details: for EC50: figure legends, survival of cultured U251 MG NCI cells, MTT, six days after drug treatment, read-out: ED50 (the source's name); for IC50: Table 3, U251MG
Experimental: as §1, §2

[8] = Homo sapiens, U-251, read-out: concentration needed for 50% growth inhibition (ID50)
[9] = read-out: concentration needed for 50% growth inhibition (ID50)

Structure (SMILES): CCNCCCNCCCNCCCNCC [BE-333, N1,N11-diethylnorspermine, reference compound]
- EC50 [1]: 340 nM
- EC50 [2]: 120 nM
- EC50 [3]: 900 nM
- EC50 [4]: 300 nM
- EC50 [5]: 300 nM
- EC50 [6]: 3700 nM
- EC50 [7]: 230 nM

Structure (SMILES): CCNCCCNCCCCNCCCNCC [BE-343, N1,N12-bis(ethyl) spermine, reference compound]
- EC50 [1]: 240 nM
- EC50 [2]: 44 nM
- EC50 [4]: 600 nM
- EC50 [5]: 200 nM
- EC50 [6]: 500 nM
- EC50 [7]: 140 nM

Structure (SMILES): CNCCCNC[C@H]1CC[C@H]1CNCCCNC [SL-11090]
- IC50 ([1]; Homo sapiens): > 31200 nM
- IC50 ([2]; Homo sapiens): > 31200 nM
- IC50 ([4]; Homo sapiens): > 31200 nM
- IC50 ([5]; Homo sapiens): > 31200 nM
- IC50 ([6]; Homo sapiens): > 31200 nM
- IC50 [7, 8]: > 31200 nM

Structure (SMILES): CCNCCCNCC#CCNCCCNCC [SL-11091]
- EC50 ([1]; Homo sapiens, PC-3, 144 h): > 31200 nM
- IC50 ([1]; Homo sapiens): > 31200 nM
- EC50 ([2]; Homo sapiens, DU-145, 144 h): 4330 nM
- IC50 ([2]; Homo sapiens): 1330 nM
- EC50 ([4]; Homo sapiens, HT-29, 144 h): > 31200 nM
- IC50 ([4]; Homo sapiens): > 31200 nM
- EC50 ([5]; Homo sapiens, 144 h): > 31200 nM
- IC50 ([5]; Homo sapiens): > 31200 nM
- EC50 ([6]; Homo sapiens, 144 h): > 31200 nM
- IC50 ([6]; Homo sapiens): > 31200 nM
- EC50 ([7]; Homo sapiens, U-251, 144 h): > 31200 nM
- IC50 [7, 8]: > 31200 nM

Structure (SMILES): CNCCCNCC#CCNCCCNC [SL-11092]
- IC50 ([1]; Homo sapiens): > 31200 nM
- IC50 ([2]; Homo sapiens): 1700 nM
- IC50 ([4]; Homo sapiens): > 31200 nM
- IC50 ([5]; Homo sapiens): > 31200 nM
- IC50 ([6]; Homo sapiens): > 31200 nM
- IC50 [7, 8]: > 31200 nM

Structure (SMILES): CCNCCCNCc1ccccc1CNCCCNCC [SL-11094]
- IC50 [1]: > 31200 nM
- EC50 [2]: 15400 nM
- IC50 [2]: 12600 nM
- IC50 [4]: 28800 nM
- concentration needed for 50% growth inhibition (ID50) [5]: >31250 nM
- IC50 [6]: > 31200 nM
- IC50 [7, 9]: > 31200 nM

Structure (SMILES): CCNCCCCNC/C=C/CNCCCCNCC [SL-11101]
- EC50 ([1]; Homo sapiens, PC-3, 144 h): 7700 nM
- IC50 ([1]; Homo sapiens): 7700 nM
- EC50 ([2]; Homo sapiens, DU-145, 144 h): 220 nM
- IC50 ([2]; Homo sapiens): 218 nM
- EC50 ([3]; Homo sapiens, 144 h): 850 nM
- IC50 ([3]; Homo sapiens): 850 nM
- IC50 ([4]; Homo sapiens): 5200 nM
- EC50 ([5]; Homo sapiens, 144 h): 2200 nM
- IC50 ([5]; Homo sapiens): 150 nM
- EC50 ([6]; Homo sapiens, 144 h): > 31200 nM
- IC50 ([6]; Homo sapiens): > 31200 nM
- EC50 ([7]; Homo sapiens, U-251, 144 h): 1700 nM
- IC50 [7, 8]: 1700 nM

Structure (SMILES): CCNCCCCNC/C=C\CNCCCCNCC [SL-11102]
- EC50 [1]: > 31200 nM
- IC50 [1]: > 31200 nM
- EC50 [2]: 30 nM
- IC50 [2]: 27 nM
- EC50 [3]: 150 nM
- IC50 [3]: 150 nM
- IC50 [4]: 730 nM
- concentration needed for 50% growth inhibition (ID50) [5]: 12400 nM
- EC50 [5]: 150 nM
- IC50 [6]: > 31200 nM
- EC50 [7]: 150 nM
- IC50 [7, 9]: 150 nM

Structure (SMILES): CCNCCCCNCC#CCNCCCCNCC [SL-11103]
- EC50 ([1]; Homo sapiens, PC-3, 144 h): > 31200 nM
- IC50 ([1]; Homo sapiens): > 31200 nM
- EC50 ([2]; Homo sapiens, DU-145, 144 h): 2800 nM
- IC50 ([2]; Homo sapiens): 2800 nM
- IC50 ([4]; Homo sapiens): 29400 nM
- EC50 ([5]; Homo sapiens, 144 h): 12400 nM
- IC50 ([5]; Homo sapiens): > 31200 nM
- EC50 ([6]; Homo sapiens, 144 h): > 31200 nM
- IC50 ([6]; Homo sapiens): > 31200 nM
- EC50 ([7]; Homo sapiens, U-251, 144 h): 9500 nM
- IC50 [7, 8]: 9500 nM

Structure (SMILES): CCNCCCCNCc1ccccc1CNCCCCNCC [SL-11104]
- IC50 [1]: > 31200 nM
- EC50 [2]: 9400 nM
- IC50 [2]: 9400 nM
- IC50 [4]: 25800 nM
- concentration needed for 50% growth inhibition (ID50) [5]: 430 nM
- IC50 [6]: > 31200 nM
- EC50 [7]: 14700 nM
- IC50 [7, 9]: 14700 nM

Structure (SMILES): CCNC/C=C\CNC/C=C\CNCCCCNCC [SL-11119]
- IC50 [1]: > 31200 nM
- EC50 [2]: 80 nM
- IC50 [2]: 80 nM
- EC50 [3]: 440 nM
- IC50 [3]: 440 nM
- IC50 [4]: 970 nM
